From patent US20190062305A1, “PYRIDYL OR PYRAZINYL COMPOUNDS CARRYING A METHYL-BOUND ALPHA-AMINO ACID AMIDE GROUP” (ABBVIE DEUTSCHLAND GMBH & CO. KG, priority 2015, published 2019)
Counter-ions that a name gives are not always drawn.

Key:
[1] = Metabolic stability in human liver microsomes, unbound intrinsic clearance (Cl int/fu mic); type: in vitro ADME; conditions: human, liver microsomes, pH 7.4, human liver microsomes 0.25 mg/mL, 0.5 μM compound, NADPH, read-out: Cl int, mic unb. (h) [l/h/kg] (unbound intrinsic clearance, human)
Outline: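 Unbound intrinsic clearance is CLint divided by fu mic, with the unbound fraction measured by 4 h HTDialysis at 37 °C of 0.25 mg/ml microsomes spiked with 0.5 µM compound. For CLint, 0.5 µM compound was incubated with 0.25 mg/mL human microsomes and 1.0 mM NADPH (pH 7.4, 37 °C). Substrate loss over 30 min was measured by LC-MS/MS and t1/2 assumed first-order kinetics.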

5-HT2C receptor = molecular target: T1, 5-HT2C receptor (Homo sapiens, UniProt P28335); assay: Human 5-HT2C functional assay (beta-arrestin2 recruitment, U2OS_HTR2C_β-Arrestin cells); type: cell-based; conditions: for EC50: beta-arrestin2 recruitment, U2OS_HTR2C_β-Arrestin cells, 1.5 h incubation, read-out: EC50 5-HT2C (potency in functional assay); for Emax: relative efficacy vs response to 10 μM 5-HT or maximal 5-HT effect (100%)
T1 construct: host or cells: U2OS
T1 sequence (P28335 33-458): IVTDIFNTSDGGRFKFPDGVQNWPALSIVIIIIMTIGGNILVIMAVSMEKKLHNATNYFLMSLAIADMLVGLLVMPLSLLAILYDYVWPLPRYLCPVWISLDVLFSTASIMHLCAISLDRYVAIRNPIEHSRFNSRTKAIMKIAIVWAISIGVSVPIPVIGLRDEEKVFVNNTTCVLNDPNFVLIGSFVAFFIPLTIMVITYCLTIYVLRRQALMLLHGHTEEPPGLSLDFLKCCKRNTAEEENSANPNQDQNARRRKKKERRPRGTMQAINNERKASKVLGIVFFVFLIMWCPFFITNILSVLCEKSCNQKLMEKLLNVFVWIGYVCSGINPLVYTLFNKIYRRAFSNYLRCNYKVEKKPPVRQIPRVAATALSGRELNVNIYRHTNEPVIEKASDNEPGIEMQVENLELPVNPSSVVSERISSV
T1 sequence (P32121 whole entry partner): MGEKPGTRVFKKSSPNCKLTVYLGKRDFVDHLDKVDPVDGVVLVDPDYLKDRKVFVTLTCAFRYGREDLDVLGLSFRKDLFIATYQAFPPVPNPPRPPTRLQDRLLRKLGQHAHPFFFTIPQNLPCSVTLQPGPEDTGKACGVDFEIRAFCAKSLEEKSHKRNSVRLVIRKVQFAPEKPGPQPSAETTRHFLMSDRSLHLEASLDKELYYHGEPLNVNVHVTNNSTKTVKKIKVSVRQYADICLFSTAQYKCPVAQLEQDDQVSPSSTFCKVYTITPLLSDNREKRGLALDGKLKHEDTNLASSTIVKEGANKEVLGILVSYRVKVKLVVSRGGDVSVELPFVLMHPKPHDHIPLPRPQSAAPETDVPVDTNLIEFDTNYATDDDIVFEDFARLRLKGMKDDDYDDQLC
Outline: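 EC50 and relative efficacy came from 4-parameter variable-slope fits, normalised to 10 µM 5-HT or maximal 5-HT response (100%). Luminescent β-galactosidase enzyme-complementation signal was read after 1.5 h compound exposure in U2OS_HTR2C_β-Arrestin cells held in 1% serum medium from the prior day.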

| Structure (SMILES) | CLint scaled at 0.5 μM [1] [L/h/kg] | EC50 (5-HT2C receptor) [µM] | Emax (5-HT2C receptor) [%] |
| --- | --- | --- | --- |
| COc1nc(OCC2(C(F)(F)F)CC2)c(F)cc1CNC(=O)[C@@H]1CCCN1C [Example 63, (2S)—N-[[5-Fluoro-2-methoxy-6-[[1-(trifluoromethyl)cyclopropyl]methoxy]-3-pyridyl]methyl]-1-methyl-pyrrolidine-2-carboxamide Hydrochloride] | < 5 | < 0.02 | > 70 |
| COc1nc(N2CCC(F)CC2)c(F)cc1CNC(=O)[C@@H]1CCCN1 [Example 160, (2S)—N-[[5-Fluoro-6-(4-fluoro-1-piperidyl)-2-methoxy-3-pyridyl]methyl]-pyrrolidine-2-carboxamide; 2,2,2-trifluoroacetic Acid] | < 5 | 0.02 to 0.2 | 50 to 70 |
| COc1nc(N2CCC(F)(F)C2)c(F)cc1CNC(=O)[C@@H]1CCCN1 [Example 164, (2S)—N-[[6-(3,3-Difluoropyrrolidin-1-yl)-5-fluoro-2-methoxy-3-pyridyl]methyl]pyrrolidine-2-carboxamide; 2,2,2-trifluoroacetic Acid] | < 5 | 0.02 to 0.2 | > 70 |
| COc1nc(N2CCC(C(F)(F)F)CC2)c(F)cc1CNC(=O)[C@@H]1CCCN1 [Example 133, (2S)—N-[[5-Fluoro-2-methoxy-6-[4-(trifluoromethyl)-1-piperidyl]-3-pyridyl]methyl]pyrrolidine-2-carboxamide; 2,2,2-trifluoroacetic Acid] | 5 to 50 | < 0.02 | > 70 |
| COc1nc(OCC(F)(F)C(F)F)c(F)cc1CNC(=O)[C@@H]1CCCN1 [Example 46, (2S)—N-[[5-Fluoro-2-methoxy-6-(2,2,3,3-tetrafluoropropoxy)-3-pyridyl]methyl]-pyrrolidine-2-carboxamide; Succinic Acid] | < 5 | < 0.02 | > 70 |
| COc1nc(C2CC2C(F)(F)F)c(F)cc1CNC(=O)[C@@H]1CCCN1 (stereo partly drawn) [Example 139, (2S)—N-[[5-fluoro-2-methoxy-6-[2-(trifluoromethyl)cyclopropyl]-3-pyridyl]methyl]pyrrolidine-2-carboxamide; 2,2,2-trifluoroacetic Acid] | 5 to 50 | 0.2 to 1 | 30 to 50 |
| COc1nc(N2CCCCC2)c(F)cc1CNC(=O)[C@@H]1CCCN1 [Example 128, (2S)—N-[[5-Fluoro-2-methoxy-6-(1-piperidyl)-3-pyridyl]methyl]pyrrolidine-2-carboxamide] | < 5 | 0.02 to 0.2 | > 70 |
| COc1nc(OC2CC(C(F)(F)F)C2)c(F)cc1CNC(=O)[C@@H]1CCCN1 (stereo partly drawn) [Example 105, (2S)—N-[[5-Fluoro-2-methoxy-6-[3-(trifluoromethyl)cyclobutoxy]-3-pyridyl]-methyl]pyrrolidine-2-carboxamide Hydrochloride] | 5 to 50 | < 0.02 | > 70 |
| COc1nc(N2CCC(F)(F)C(C(F)F)C2)c(F)cc1CNC(=O)[C@@H]1CCCN1 (stereo partly drawn) [Example 190, (2S)—N-[[6-[3-(Difluoromethyl)-4,4-difluoro-1-piperidyl]-5-fluoro-2-methoxy-3-pyridyl]methyl]pyrrolidine-2-carboxamide Hydrochloride] | < 5 | < 0.02 | > 70 |
